According to patent publication US9156831B2, “Chemical compounds” (ASTRAZENECA AB, priority 2013, dated 2015):

Legend:
Experiment in all cases: Cell proliferation assay (MTS)
[1] = test system: 22RV1; assay type: cell-based, human
Protocol: (§1) The sensitivity of a panel of human cancer cell lines to the effects of compounds was determined in a standard proliferation assay.
(§2) Cells were plated in 96 well plates at densities of 1000-6000 cells per well in RPMI media containing 10% FBS. After incubation at 37° C. for 16 hours, various concentrations of compound were added to the assay plates. After incubation for an additional 72 h, the viable cells were determined by the addition of MTS reagent (Promega #3582) to each well for 2 h. MTS is a tetrazolium salt that is bioreduced by metabolically active cells in the presence of an electron coupling reagent to formazan. The formazan product was then quantitated by absorbance at 490 nm, as an indicator of the relative number of live cells. In order to determine the GI50 (concentration at which growth of cells was inhibited by 50%) the relative number of cells present at the time of drug addition was determined by comparison with the MTS readout before the drug was added, and this value was subtracted from the 72 hr value of untreated cells as a measure of cell growth during the assay.

[2] = test system: H2291; assay type: cell-based, human
Protocol: (§3) The sensitivity of a panel of human cancer cell lines to the effects of compounds was determined in a standard proliferation assay. Cell lines were sourced through the AstraZeneca Cell Bank.
as §2

[3] = test system: SNU668; assay type: cell-based, human
Protocol: as §1
(§4) Cells were plated in 96 well plates at densities of 1000-6000 cells per well in RPMI media containing 10% FBS. After incubation at 37° C. for 16 hours, various concentrations of compound were added to the assay plates. After incubation for an additional 72 h, the viable cells were determined by the addition of MTS reagent (Promega #3582) to each well for 2 h. […] The formazan product was then quantitated by absorbance at 490 nm, as an indicator of the relative number of live cells. In order to determine the GI50 (concentration at which growth of cells was inhibited by 50%) the relative number of cells present at the time of drug addition was determined by comparison with the MTS readout before the drug was added, and this value was subtracted from the 72 hr value of untreated cells as a measure of cell growth during the assay.

[4] = test system: H2170; assay type: cell-based, human
Protocol: as §3, §2

[5] = test system: HGC27; assay type: cell-based, human
Protocol: as §1, §2

[6] = test system: HEPG2; assay type: cell-based, human
Protocol: as §3, §2

[7] = test system: REH; assay type: cell-based, human
Protocol: as §1, §4

[8] = test system: HCC1419; assay type: cell-based, human
Protocol: as §1, §2

[9] = test system: SU8686; assay type: cell-based, human
Protocol: as §1, §4

[10] = test system: H838; assay type: cell-based, human
Protocol: as §1, §2

[11] = test system: SNU878; assay type: cell-based, human
Protocol: as §1, §2

[12] = test system: CALU6; assay type: cell-based, human
Protocol: as §3, §2

[13] = test system: HCC1954; assay type: cell-based, human
Protocol: as §1, §2

[14] = test system: PANC1005; assay type: cell-based, human
Protocol: as §1, §2

[15] = test system: CALU1; assay type: cell-based, human
Protocol: as §1, §2

[16] = test system: KG1; assay type: cell-based, human
Protocol: as §1, §2

[17] = test system: HCC15; assay type: cell-based, human
Protocol: as §1, §2

[18] = test system: PC3; assay type: cell-based, human
Protocol: as §1, §2

[19] = test system: JVM3; assay type: cell-based, human
Protocol: as §1, §2

[20] = test system: H2286
Protocol: as §1, §4

[21] = test system: MGHU3; assay type: cell-based, human
Protocol: as §3, §2

[22] = test system: CALU3; assay type: cell-based, human
Protocol: as §3, §4

[23] = test system: HLE; assay type: cell-based, human
Protocol: as §1, §4

[24] = test system: 1A6; assay type: cell-based, human
Protocol: as §1, §2

[25] = test system: BT549; assay type: cell-based, human
Protocol: as §1, §4

[26] = test system: […]; assay type: cell-based, human
Protocol: as §1, §2

[27] = test system: SW900; assay type: cell-based, human
Protocol: as §3, §2

[28] = test system: JEKO1; assay type: cell-based, human
Protocol: as §3, §2

[29] = test system: CFPAC1; assay type: cell-based, human
Protocol: as §3, §2

[30] = test system: A549; assay type: cell-based, human
Protocol: as §1, §2

[31] = test system: H460; assay type: cell-based, human
Protocol: as §1, §2

[32] = test system: CC20; assay type: cell-based, human
Protocol: as §1, §2

[33] = test system: WSUDLCL2; assay type: cell-based, human
Protocol: as §1, §4

[34] = test system: SW480; assay type: cell-based, human
Protocol: as §1, §4

[35] = test system: SNU739; assay type: cell-based, human
Protocol: as §3, §2

[36] = test system: SW1990; assay type: cell-based, human
Protocol: as §1, §2

[37] = test system: BT20; assay type: cell-based, human
Protocol: as §3, §2

[38] = test system: PAMC82; assay type: cell-based, human
Protocol: as §3, §4

[39] = test system: U937; assay type: cell-based, human
Protocol: as §1, §2

[40] = test system: RS411; assay type: cell-based, human
Protocol: as §1, §2

[41] = test system: K562; assay type: cell-based, human
Protocol: as §1, §2

[42] = test system: CMK; assay type: cell-based, human
Protocol: as §1, §2

[43] = test system: SC1; assay type: cell-based, human
Protocol: as §1, §4

[44] = Homo sapiens, Stomach, PIK3CA WT
[45] = Homo sapiens, Blood/lymph, PIK3CA WT
[46] = Homo sapiens, Pancreas, PIK3CA WT
[47] = Homo sapiens, Bladder, PIK3CA WT

What does the source list for `CCn1nc(C2CCN(C(=O)CCO)CC2)nc1-c1cnc(N)c(-c2nnc(C(C)(C)C)o2)n1` [Example 3, 1-(4-(5-(5-amino-6-(5-tert-butyl-1,3,4-oxadiazol-2-yl)pyrazin-2-yl)-1-ethyl-1H-1,2,4-triazol-3-yl)piperidin-1-yl)-3-hydroxypropan-1-one]?
Category [1]: Resistant (resistant (GI50>1.0 μM)); GI50 ([1]; Homo sapiens, Prostate, PIK3CA MUT): 4.14 µM; Category [2]: Resistant (resistant (GI50>1.0 μM)); GI50 ([2]; Homo sapiens, NCI-H2291, Lung, PIK3CA WT): 3.29 µM; Category [3]: Resistant (resistant (GI50>1.0 μM)); GI50 [3, 44]: 15.5 µM; Category [4]: Resistant (resistant (GI50>1.0 μM)); GI50 ([4]; Homo sapiens, NCI-H2170, Lung, PIK3CA WT): 7.64 µM; Category [5]: Resistant (resistant (GI50>1.0 μM)); GI50 ([5]; Homo sapiens, HGC-27, Stomach, PIK3CA MUT): 1.5 µM; Category [6]: Resistant (resistant (GI50>1.0 μM)); GI50 ([6]; Homo sapiens, Liver, PIK3CA WT): 30 µM; Category [7]: Resistant (resistant (GI50>1.0 μM)); GI50 [7, 45]: 1.05 µM; Category [8]: Sensitive (sensitive (GI50<=1.0 μM)); GI50 ([8]; Homo sapiens, Breast, PIK3CA WT): 0.78 µM; Category [9]: Resistant (resistant (GI50>1.0 μM)); GI50 ([9]; Homo sapiens, SU.86.86, Pancreas, PIK3CA WT): 18 µM; Category [10]: Resistant (resistant (GI50>1.0 μM)); GI50 ([10]; Homo sapiens, NCI-H838, Lung, PIK3CA WT): 30 µM; Category [11]: Resistant (resistant (GI50>1.0 μM)); GI50 ([11]; Homo sapiens, Liver, PIK3CA WT): 16.1 µM; Category [12]: Resistant (resistant (GI50>1.0 μM)); GI50 ([12]; Homo sapiens, Calu-6, Lung, PIK3CA WT): 26.2 µM; Category [13]: Sensitive (sensitive (GI50<=1.0 μM)); GI50 ([13]; Homo sapiens, Breast, PIK3CA MUT): 0.879 µM; Category [14]: Resistant (resistant (GI50>1.0 μM)); GI50 [14, 46]: 2.61 µM; Category [15]: Resistant (resistant (GI50>1.0 μM)); GI50 ([15]; Homo sapiens, Calu-1, Lung, PIK3CA WT): 16 µM; Category [16]: Resistant (resistant (GI50>1.0 μM)); GI50 ([16]; Homo sapiens, KG-1, Blood/lymph, PIK3CA WT): 6.59 µM; Category [17]: Resistant (resistant (GI50>1.0 μM)); GI50 ([17]; Homo sapiens, Lung, PIK3CA WT): 30 µM; Category [18]: Resistant (resistant (GI50>1.0 μM)); GI50 ([18]; Homo sapiens, PC-3, Prostate, PIK3CA WT): 3.83 µM; Category [19]: Resistant (resistant (GI50>1.0 μM)); GI50 ([19]; Homo sapiens, JVM-3, Blood/lymph, PIK3CA WT): 30 µM; Category ([20]; H2286): Resistant (resistant (GI50>1.0 μM)); GI50 ([20]; Homo sapiens, NCI-H2286): 20 µM; Category [21]: Resistant (resistant (GI50>1.0 μM)); GI50 [21, 47]: 11.5 µM; Category [22]: Resistant (resistant (GI50>1.0 μM)); GI50 ([22]; Homo sapiens, Calu-3, Lung, PIK3CA WT): 1.3 µM; Category [23]: Resistant (resistant (GI50>1.0 μM)); GI50 ([23]; Homo sapiens, Liver, PIK3CA WT): 13.5 µM; Category [24]: Resistant (resistant (GI50>1.0 μM)); GI50 [24, 47]: 30 µM; Category [25]: Resistant (resistant (GI50>1.0 μM)); GI50 ([25]; Homo sapiens, BT-549, Breast, PIK3CA WT): 17.4 µM; GI50 ([26]; Homo sapiens): 0.792 µM; Category ([26]; […]): Sensitive (sensitive (GI50<=1.0 μM)); Category [27]: Resistant (resistant (GI50>1.0 μM)); GI50 ([27]; Homo sapiens, Lung, PIK3CA WT): 30 µM; Category [28]: Sensitive (sensitive (GI50<=1.0 μM)); GI50 ([28]; Homo sapiens, JeKo-1, Blood/lymph, PIK3CA WT): 0.499 µM; Category [29]: Resistant (resistant (GI50>1.0 μM)); GI50 ([29]; Homo sapiens, CFPAC-1, Pancreas, PIK3CA WT): 3.38 µM; Category [30]: Resistant (resistant (GI50>1.0 μM)); GI50 ([30]; Homo sapiens, Lung, PIK3CA WT): 10.2 µM; Category [31]: Resistant (resistant (GI50>1.0 μM)); GI50 ([31]; Homo sapiens, NCI-H460, Lung, PIK3CA MUT): 30 µM; Category [32]: Resistant (resistant (GI50>1.0 μM)); GI50 ([32]; Homo sapiens, Colon, PIK3CA WT): 30 µM; Category [33]: Resistant (resistant (GI50>1.0 μM)); GI50 [33, 45]: 17.7 µM; Category [34]: Resistant (resistant (GI50>1.0 μM)); GI50 ([34]; Homo sapiens, Colon, PIK3CA WT): 15.9 µM; Category [35]: Resistant (resistant (GI50>1.0 μM)); GI50 ([35]; Homo sapiens, SNU-739, Liver, PIK3CA WT): 25.9 µM; Category [36]: Resistant (resistant (GI50>1.0 μM)); GI50 [36, 46]: 28.3 µM; Category [37]: Resistant (resistant (GI50>1.0 μM)); GI50 ([37]; Homo sapiens, BT-20, Breast, PIK3CA MUT): 2.36 µM; Category [38]: Resistant (resistant (GI50>1.0 μM)); GI50 [38, 44]: 1.37 µM; Category [39]: Resistant (resistant (GI50>1.0 μM)); GI50 ([39]; Homo sapiens, U-937, Blood/lymph, PIK3CA WT): 7.34 µM; Category [40]: Sensitive (sensitive (GI50<=1.0 μM)); GI50 ([40]; Homo sapiens, RS4-11, Blood/lymph, PIK3CA WT): 0.0903 µM; Category [41]: Resistant (resistant (GI50>1.0 μM)); GI50 [41, 45]: 30 µM; Category [42]: Resistant (resistant (GI50>1.0 μM)); GI50 [42, 45]: 28.9 µM; Category [43]: Resistant (resistant (GI50>1.0 μM)); GI50 ([43]; Homo sapiens, SC-1, Blood/lymph, PIK3CA WT): 30 µM
